Measurements reported in US20090221708A1, “Medicinal preparation” (priority 2004, published 2009).

How the values were obtained:
[1] = biological target: T1, Transthyretin (protein) of the blood plasma (Homo sapiens, UniProt P02766); assay: Example 3: Transthyretin of the blood plasma in test tube; format: biochemical
T1 construct: Transthyretin (protein) of the blood plasma; from tissue; host or cells: blood plasma
Method: Into a test tube (10 ml) with Transthyretin (protein) of the blood plasma (pH=7.0) in a concentration of 0.05 mmol/ml, four drops of 0.1% MCPA aqueous solution were introduced. The test tube was thermostatically controlled at a temperature of 37° C. After 15 minutes, the concentration of Transthyretin and the pH value of the blood plasma were measured. Transthyretin was not found, and the pH value was 6.0.

melanoma-16 = assay: Example 8: mice inoculated with melanoma-16; format: in vivo; details: for surviving mice in which no blastomas were ascertained / surviving mice with blastomas of approximately 0.3×0.2 mm: 36th day, 5 mg as a drink; for mice with isolated pulmonal metastases at dissection: surviving mice killed on the 36th day
[2] = system: adenocarcinoma of the prostate gland; assay: Example 9: patient K., adenocarcinoma of the prostate gland, ultrasound, PSA and blood counts; format: in vivo, human; set-up: prostate had become smaller by (ultrasound): dose or concentration left out as unconfirmed
Method: An ultrasound test on 8 Aug. […] A PSA test on 8 Aug.
The patient declined an operation and chemotherapy. The patient was treated with the drug. On 9 Aug. […] The treatment lasted 10 days.

hepatitis C = assay: Example 12: patient N., hepatitis C, hepatargy and ascites, symptoms and blood counts; format: in vivo, human; details: after 2 weeks (250 mg twice a day)
[3] = system: cancer cells PC-3 (prostate carcinoma); assay: Example 1: mitochondrial membranes of cancer cells PC-3 in test tubes; format: cell-based; details: PC-3, dilution 10^−5 mmol/l, 24 hours at 37° C.
Method: After thermostatically controlling the aforementioned test tubes in the course of 24 hours at a temperature of 37° C., the contents were analyzed.

[4] = biological target: T2, β-amyloid (protein) of the blood plasma (Homo sapiens, UniProt P05067); assay: Example 4: β-amyloid of the blood plasma in test tube; format: biochemical
T2 construct: Into a test tube with β-amyloid (protein) of the blood plasma (pH=7.4); from tissue; host or cells: blood plasma
Method: Into a test tube with β-amyloid (protein) of the blood plasma (pH=7.4) with a concentration of 0.1 mmol/ml, three drops of 0.1% sodium salt aqueous solution (called O.F.1) are introduced. The test tube was thermostatically controlled at a temperature of 37° C. After 15 minutes, the protein concentration and the pH value of the blood plasma were measured. The protein concentration amounted to 0.03 mmol/ml, and the pH value amounted to 7.2.

[5] = system: filtrate formed from melanoma 16; assay: Example 6: filtrate from melanoma 16 in the polarisation microscope; details: filtrate with the preparation; without it the light polarization is slight
Method: A filtrate formed from melanoma 16 (10 ml) was accommodated in a quartz vessel and detected in the polarisation microscope. Thereafter, sodium salt (O.F.1) was introduced into the filtrate, and a repeat detection was carried out in the polarisation microscope.

[6] = system: plasma of the blood of a sarcoma patient; assay: Example 5: plasma of a sarcoma patient in the polarisation microscope; details: plasma with aqueous solution of the salt; dried plasma without it: light diffusion
Method: The blood of a sarcoma patient (10 ml) was centrifuged. A proportion of plasma was dried and detected in the polarisation microscope. Into the remaining proportion of plasma, an aqueous solution of lithium salt of MCPA acid was introduced, and the mixture was also detected in the polarization microscope.

T2 sequence (P05067 672-711 limits assumed): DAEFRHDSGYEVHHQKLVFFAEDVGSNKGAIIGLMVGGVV

Q: With `Cc1cc(Cl)ccc1OCC(=O)O` [4-chlorine-2-methyl phenoxyacetic acid] as the compound, how does the “pH value of the blood plasma” value ([1]; after 15 minutes at 37° C., initial pH=7.0) read?
A: 6.0

Q: And the “concentration of Transthyretin” value ([1]; four drops of 0.1% aqueous solution, 37° C., after 15 minutes, initial 0.05 mmol/ml)?
A: not found

Q: And the “surviving mice in which no blastomas were ascertained” value (melanoma-16)?
A: 3 mice

Q: What about the “surviving mice with blastomas of approximately 0.3×0.2 mm” value (melanoma-16) of the same compound?
A: 3 mice

Q: And the “mice died on the 23rd day” value (melanoma-16; single dose of 5 mg as a drink)?
A: 2 mice

Q: What about the “mice with isolated pulmonal metastases at dissection” value (melanoma-16) of the same compound?
A: 2 mice

Q: What about the pains during urination ([2]; 10 days of treatment) of the same compound?
A: became less

Q: And the “prostate had become smaller by (ultrasound)” value ([2]; 10 days, before approximately 90 cm^3)?
A: 30%

Q: And the Albumin (hepatitis C; before treatment 2.0)?
A: 4.7 g/dL

Q: What about the Bilirubin (hepatitis C; before treatment 2.9) of the same compound?
A: 1.7 mg/dL

Q: What about the Aspart aminotransferasis (hepatitis C; before treatment 73.0) of the same compound?
A: 51.0 units/l

Q: And the Alanine aminotransferasis (hepatitis C; before treatment 77.0)?
A: 71.4 units/l

Q: And the Gammaglutamyl transferasis (hepatitis C; before treatment 129.0)?
A: 82.0 units/l

Q: What about the Lactate dehydrogenasis (hepatitis C; before treatment 543.5) of the same compound?
A: 335.0 units/l

Q: With `COc1cccc2c1C(=O)c1c(O)c3c(c(O)c1C2=O)C[C@@](O)(C(=O)CO)C[C@@H]3O[C@H]1C[C@H](N)[C@H](O)[C@H](C)O1` [Adriamycin, reference compound] as the compound, how does the “mitochondrial membranes of cancer cells (appearance)” value [3] read?
A: membrane swelling

Q: What about the “mice alive on the 36th day of the test” value (melanoma-16; single dose of 5 mg as a drink) of the same compound?
A: 2 mice

Q: Which “pH value of the blood plasma” value ([4]; after 15 minutes at 37° C., initial pH=7.4) does the source give for `Cc1cc(Cl)ccc1OCC(=O)[O-].[Na+]` [O.F.1] here?
A: 7.2

Q: What about the “protein (β-amyloid) concentration” value ([4]; three drops of 0.1% aqueous solution, 37° C., after 15 minutes, initial 0.1 mmol/ml) of the same compound?
A: 0.03 mmol/mL

Q: And the “observation in the polarisation microscope” value [5]?
A: pronounced polarization

Q: What about the “surviving mice in which no blastomas were ascertained” value (melanoma-16) of the same compound?
A: one

Q: What about the “surviving mice with blastomas of approximately 0.3×0.2 mm” value (melanoma-16) of the same compound?
A: 8 mice

Q: What about the “mice died on the 23rd day” value (melanoma-16; single dose of 5 mg as a drink) of the same compound?
A: one

Q: And the “mice died on the 26th day” value (melanoma-16; single dose of 5 mg as a drink)?
A: one

Q: What about the “mice died on the 30th day” value (melanoma-16; single dose of 5 mg as a drink) of the same compound?
A: 1 mice

Q: And the “mice with isolated pulmonal metastases at dissection” value (melanoma-16)?
A: 4 mice

Q: How did the “observation in the polarisation microscope” value [6] turn out when `Cc1cc(Cl)ccc1OCC(=O)[O-].[Li+]` [lithium salt of MCPA acid] was run?
A: double refraction of rays
